# According to patent publication US20240262806A1, “INHIBITORS OF NLRP3” (PTC THERAPEUTICS, INC., priority 2021, published 2024):
# System: NLRP3 inflammasome
# Test: IL-1β Secretion Assay (NLRP3-dependent IL-1β secretion in PMA-differentiated THP-1 cells, nigericin activation, HTRF)
# Type: cell-based
# Settings: Homo sapiens, THP-1, THP-1 cells, 100 ng/mL PMA 24 h, compound 20 h, 2.5 μM Nigericin 3 h; read-out: IC50 IL-1β Inhibition
# Method: Cells were washed 1× with 100 ul PBS and replaced with fresh RPMI+5% FBS. Compounds were serial diluted in DMSO with 3 fold dilution for a total of 7 concentrations.
# Compounds, once produced and prepared according to the present invention, can be assessed in variety of assays to characterize their activities. […] IC50 values of IL1β inhibition were calculated from the plot of percentage of inhibition versus the inhibitor concentration by a logistics fit. TABLE I depict examples of compounds according to generic Formulae I. Data which is <1 nM is listed as *****; data 1-10 nM is listed as ****; data 10-100 nM is listed as ***, data 100-300 nM is listed as **, data >300 nM is listed as *.
row,Compound,IC50 [µM]
1,"CN1C[C@H](F)C[C@@H](Nc2nnc(-c3c(O)cc(C4CC4)cc3F)c3cccn23)C1 [Compound I-445, 5-Cyclopropyl-3-fluoro-2-[4-[[(3R,5R)-5-fluoro-1-methyl-3-piperidyl]amino]-pyrrolo[1,2-d][1,2,4]triazin-1-yl]phenol]",0.001 to 0.01
2,CC1CCCc2c(N[C@@H]3CCCNC3)nnc(-c3ccc(C(F)(F)F)cc3O)c21 (stereo partly shown) [Compound I-23],0.01 to 0.1
3,CN1CCC[C@@H](Nc2nnc(-c3c(F)cc(Cl)cc3F)c3ccncc23)C1 [Compound I-221],0.001 to 0.01
4,CN1CCCC(Cc2nnc(-c3ccc(C(F)(F)F)cc3O)c3ccccc23)C1 (stereo not shown) [Compound I-44],0.001 to 0.01
5,Cc1ccc(-c2nnc(N[C@@H]3CCCN(C)C3)c3ccccc23)c(O)c1 [Compound I-25],< 0.001
6,OCCN1CCC[C@@H](Nc2nnc(-c3ccc(C(F)(F)F)cc3C(F)(F)F)c3cccn23)C1 [Compound I-491],0.001 to 0.01
7,Oc1cc(Cl)ccc1-c1nnc(N[C@@H]2CCCNC2)n2cncc12 [Compound I-435],0.001 to 0.01
8,C[C@@H](O)CNc1nnc(-c2ccc(C(F)(F)F)cc2OC(F)F)c2c(F)ccn12 [Compound I-440],0.01 to 0.1
9,CN1C[C@H](F)C[C@@H](Nc2nnc(-c3ccc(OC(F)F)cc3OC(F)F)c3cccn23)C1 [Compound I-615],0.01 to 0.1
10,CN1CCC[C@@H](Nc2nnc(-c3ccc(-c4ccccc4)cc3O)c3ccccc23)C1 [Compound I-39],0.001 to 0.01
11,CN1C[C@H](O)C[C@@H](Nc2nnc(-c3ccc(C(F)(F)F)cc3O)c3c(F)ccn23)C1 [Compound I-597],0.01 to 0.1
12,Oc1cc(C(F)(F)F)cc(F)c1-c1nnc(N[C@@H]2CCCOC2)n2cccc12 [Compound I-395],0.01 to 0.1
13,CCc1ccc(-c2nnc(N[C@@H]3CCCN(C)C3)c3cnccc23)c(O)c1 [Compound I-307],< 0.001
14,CN(C)C1CCC[C@@H](Nc2nnc(-c3c(O)cc(C4CC4)cc3F)c3cccn23)C1 (stereo partly shown) [Compound I-541],< 0.001
15,CCN1C[C@H](F)C[C@@H](Nc2nnc(-c3ccc(C(F)(F)F)cc3C(F)(F)F)c3cccn23)C1 [Compound I-535],0.001 to 0.01
16,COc1cc(O)c(-c2nnc(N[C@H]3C[C@@](C)(O)C3)n3cccc23)c(F)c1 [Compound I-562],0.001 to 0.01
17,CCN1CCC[C@@H](Nc2nnc(-c3ccc(C)cc3O)c3ccnn23)C1 [Compound I-633],0.001 to 0.01
18,CN1CCC[C@@H](Nc2nnc(-c3ccc(C(F)(F)F)cc3-c3cn[nH]c3)c3ccncc23)C1 [Compound I-193],0.01 to 0.1
19,CN1C[C@H](F)C[C@@H](Nc2nnc(-c3ccc(C(F)(F)F)cc3OC(F)F)c3cncn23)C1 [Compound I-625],0.01 to 0.1
20,CN1CCC[C@@H](Nc2nnc(-c3ccc(C(F)(F)F)cc3-c3ccn(C)n3)c3ccncc23)C1 [Compound I-232],0.01 to 0.1
21,Cc1cc2c(-c3c(O)cc(C4CC4)cc3F)nnc(N[C@@H]3CCCN(C)C3)n2n1 [Compound I-429],< 0.001
22,FC(F)Oc1cc(C(F)(F)F)ccc1-c1nnc(NC[C@H]2CCCO2)n2cccc12 [Compound I-611],0.01 to 0.1

row,Compound,IC50 [µM]
1,Cc1ccc(-c2nnc(N[C@@H]3CCCN(C)C3)c3ccccc23)c(F)c1F [Compound I-165],0.01 to 0.1
2,Cc1ccc(-c2nnc(N[C@@H]3CCCN(CCO)C3)n3cccc23)c(O)c1 [Compound I-354],< 0.001
3,"CN1CCC[C@@H](Nc2nnc(-c3ncc(Cl)cc3O)c3ccccc23)C1 [Compound I-81, (R)-5-Chloro-2-(4-((1-methylpiperidin-3-yl)amino)phthalazin-1-yl)pyridin-3-ol]",0.01 to 0.1
4,"OCCN1CCC[C@@H](Nc2nnc(-c3c(O)cccc3F)c3ccncc23)C1 [Compound I-285, 3-Fluoro-2-[4-[[(3R)-1-(2-hydroxyethyl)-3-piperidyl]amino]pyrido[3,4-d]pyridazin-1-yl]phenol]",0.001 to 0.01
5,COc1ccc(-c2nnc(NC[C@@H](C)O)n3cccc23)c(O)c1 [Compound I-587],0.01 to 0.1
6,Cc1cc(O)c(-c2nnc(N[C@@H]3CCCN(C(C)C)C3)n3cccc23)c(F)c1 [Compound I-569],< 0.001
7,C[C@]1(O)C[C@@H](Nc2nnc(-c3ccc(OC(F)F)cc3OC(F)F)c3cccn23)C1 [Compound I-573],0.01 to 0.1
8,Cc1nc(-c2ccc(-c3nnc(N[C@@H]4CCCN(C)C4)c4ccccc34)c(O)c2)ns1 [Compound I-38],< 0.001
9,FC(F)Oc1cc(C(F)(F)F)ccc1-c1nnc(N[C@@H]2CCOC2)n2cccc12 [Compound I-388],0.001 to 0.01
10,C[C@]1(O)C[C@@H](Nc2nnc(-c3ccc(C(F)(F)F)cc3OC(F)F)c3cccn23)C1 [Compound I-537],0.001 to 0.01
11,CN1CCC[C@@H](Nc2nnc(-c3ccc(Br)cc3OC(F)(F)F)c3cccn23)C1 [Compound I-504],< 0.001
12,CN1CCN(c2nnc(-c3ccc(C(F)(F)F)cc3O)c3cnccc23)CC1 [Compound I-116],0.1 to 0.3
13,Cc1ccc(-c2nnc(N[C@@H]3CCCN(C)C3)c3cnccc23)c(O)n1 [Compound I-78],0.01 to 0.1
14,CN1C[C@H](F)C[C@@H](Nc2nnc(-c3c(O)cc(OC(F)F)cc3F)c3cccn23)C1 [Compound I-617],0.001 to 0.01
15,"Oc1cc(C(F)(F)F)ccc1-c1nnc(N[C@@H]2CCCNC2)c2ccccc12 [Compound I-20, 2-[4-[[(3R)-3-Piperidyl]amino]phthalazin-1-yl]-5-(trifluoromethyl)phenol]",< 0.001
16,"COc1ccc(-c2nnc(N[C@@H]3CCCN(C)C3)n3nccc23)c(O)c1 [Compound I-634, (R)-5-Methoxy-2-(7-((1-methylpiperidin-3-yl)amino)pyrazolo[1,5-d][1,2,4]triazin-4-yl)phenol]",0.01 to 0.1
17,"CN1C[C@H](F)C[C@@H](Nc2nnc(-c3ccc(C(F)(F)F)cc3OC(F)F)c3cccn23)C1 [Compound I-413, 1-[2-(Difluoromethoxy)-4-(trifluoromethyl)phenyl]-N-[(3R,5R)-5-fluoro-1-methyl-3-piperidyl]pyrrolo[1,2-d][1,2,4]triazin-4-amine]",0.001 to 0.01
18,CCN1CCC[C@@H](Nc2nnc(-c3ccc(C(F)(F)F)cc3O)c3cncn23)C1 [Compound I-360],< 0.001
19,CC(C)N1CCC[C@@H](Nc2nnc(-c3ccc(C(F)(F)F)cc3O)c3c2CCCC3)C1 [Compound I-34],< 0.001
20,CN1CCC[C@H]1CNc1nnc(-c2ccc(C(F)(F)F)cc2O)c2ccncc12 [Compound I-112],< 0.001
21,CCN1CCC[C@@H](Nc2nnc(-c3ccc(C(F)(F)F)cc3C(F)(F)F)c3cccn23)C1 [Compound I-371],< 0.001
22,CCN1CCC[C@@H](Nc2nnc(-c3c(O)cc(C4CC4)cc3F)c3c(F)ccn23)C1 [Compound I-602],< 0.001

row,Compound,IC50 [µM]
1,Oc1cc(C(F)(F)F)ccc1-c1nnc(N[C@@H]2CCCCNC2)c2cnccc12 [Compound I-261],0.001 to 0.01
2,FC(F)Oc1cc(C(F)(F)F)ccc1-c1nnc(N[C@@H]2CCCNC2)c2ccncc12 [Compound I-231],0.01 to 0.1
3,CN1CCC[C@@H](Nc2nnc(-c3ccc(C(F)(F)F)cc3O)c3c(F)ccn23)C1 [Compound I-393],< 0.001
4,"[2H]C([2H])([2H])Oc1ccc(-c2nnc(N[C@@H]3CCCN(C)C3)n3cccc23)c(O)c1 [Compound I-501, (R)-5-(Methoxy-d3)-2-(4-((1-methylpiperidin-3-yl)amino)pyrrolo[1,2-d][1,2,4]triazin-1-yl)phenol]",< 0.001
5,OCCN1CCC[C@@H](Nc2nnc(-c3ccc(OC(F)F)cc3OC(F)F)c3cccn23)C1 [Compound I-614],0.001 to 0.01
6,CN1CCC[C@@H](Nc2nnc(-c3ccc(C(F)(F)F)cc3O)c3c2CCC3(C)C)C1 [Compound I-46],0.01 to 0.1
7,Oc1cc(C(F)(F)F)ccc1-c1nnc(N[C@@H]2CCCN(CC(F)(F)F)C2)n2cccc12 [Compound I-483],0.1 to 0.3
8,FC(F)Oc1cc(C(F)(F)F)ccc1-c1nnc(N[C@@H]2CCCNC2)c2cnccc12 [Compound I-311],0.001 to 0.01
9,"CN1CCC[C@@H](Nc2nnc(-c3ccc(Cl)cc3OCC(F)(F)F)c3cccn23)C1 [Compound I-485, (R)-1-(4-Chloro-2-(2,2,2-trifluoroethoxy)phenyl)-N-(1-methylpiperidin-3-yl)pyrrolo[1,2-d][1,2,4]triazin-4-amine]",0.01 to 0.1
10,CN1CCC[C@@H](Nc2nnc(-c3ccc(-c4ccn(C)c4)cc3O)c3ccccc23)C1 [Compound I-94],0.001 to 0.01
11,Cc1cc(O)c(-c2nnc(N[C@@H]3CCCN(CCO)C3)n3cccc23)c(F)c1 [Compound I-341],0.001 to 0.01
12,Cc1cc(O)c(-c2nnc(N[C@@H]3CCCN(CCO)C3)c3cnccc23)c(F)c1 [Compound I-273],< 0.001
13,COc1nc(C)ccc1-c1nnc(N[C@@H]2CCCN(C)C2)c2ccccc12 [Compound I-160],0.1 to 0.3
14,CN1C[C@H](F)C[C@@H](Nc2nnc(-c3ccc(C(F)(F)F)cc3O)c3c(F)ccn23)C1 [Compound I-596],0.001 to 0.01
15,CN1CCC[C@@H](Nc2nnc(-c3ccc(C(F)(F)F)cc3O)c3cc(C4CC4)nn23)C1 [Compound I-345],0.001 to 0.01
16,Oc1cc(C(F)(F)F)ccc1-c1nnc(N[C@@H]2CCCN(C3CC(CC(F)F)C3)C2)c2cnccc12 (stereo partly shown) [Compound I-257],0.001 to 0.01
17,Cc1cc(O)c(-c2nnc(NCC(C)(C)O)n3cccc23)c(F)c1 [Compound I-539],0.001 to 0.01
18,Oc1cc(C(F)(F)F)ccc1-c1nnc(N[C@@H]2CCCN(CC(F)F)C2)c2cnccc12 [Compound I-277],< 0.001
19,FC(F)Oc1cc(C(F)(F)F)ccc1-c1nnc(NC[C@@H]2CCCO2)n2cccc12 [Compound I-610],0.01 to 0.1
20,CCN1C[C@H](F)C[C@@H](Nc2nnc(-c3ccc(OC(F)(F)F)cc3O)c3c(F)ccn23)C1 [Compound I-598],0.001 to 0.01
